Results on 12 molecules are retold here after patent US12209102B2, “Heterocyclic compounds and uses thereof” (Kumquat Biosciences Inc., priority 2022, dated 2025).

Structures are written as SMILES.

Test [1] concerns GP2D cells. The test is described as follows: Ras cellular assay, growth of cells with K-Ras G12D mutation (CellTiter-Glo). The conditions noted are these: cell growth, Example 9, G12D mutation, read-out: IC50 against GP2D cells. It counts as cell-based. Background: In ATP-based viability assays light output follows the ATP content of the culture.
For test [2], the system named is SW620 cells. Nature of the test: Ras cellular assay, growth of cells with K-Ras G12V mutation (CellTiter-Glo). It counts as cell-based. To be noted: Homo sapiens, SW-620; cell growth, Example 9, G12V mutation; read-out: IC50 against SW620 cells. The method in brief: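 IC50 values came from a four-parameter fit of CellTiter-Glo viability, read roughly 6 days after dosing with e.g. a 10-point threefold dilution series. G12V-mutant SW620 cells (e.g. 800 per well) had been plated the previous day in RPMI-1640/10% heat-inactivated FBS, on tissue culture-treated or ultra-low attachment plates.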

The target in test [3] is T1, K-Ras WT (Homo sapiens, UniProt P01116).
T1 construct: made in house; host or cells: E. coli BL21 (DE3)
T1 sequence (P01116 1-188 isoform P01116-2): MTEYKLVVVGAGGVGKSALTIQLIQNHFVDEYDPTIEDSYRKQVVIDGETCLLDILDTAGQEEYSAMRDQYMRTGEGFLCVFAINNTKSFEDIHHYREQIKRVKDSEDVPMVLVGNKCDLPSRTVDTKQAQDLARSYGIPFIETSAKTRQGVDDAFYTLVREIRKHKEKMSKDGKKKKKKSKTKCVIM
The test is described as follows: HTRF resonance energy transfer assay, K-Ras WT / SOS1 interaction. It counts as biochemical. The conditions noted are these: HTRF assay of Example 5; read-out: IC50 against K-Ras WT. The procedure, abridged:
(§1)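 Compounds, tested in duplicate at 10 μM down to 0.01 μM, were read after about 10 min or more by HTRF as the 665/620 nm emission ratio (337 nm excitation) to derive IC50. This ratio reports FRET between an anti-GST-Eu donor on GST-K-Ras (wild-type or mutant) and an anti-6His-XL665 acceptor on His-hSOS1. Buffer: ~5 mM HEPES pH 7.4, 150 mM NaCl, 1 mM DTT, 0.05% BSA, 0.0025% Igepal.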
A general note: In TR-FRET formats the signal depends on donor and acceptor labels being close together.

Test [4] has as its target T2, K-Ras G12S (Homo sapiens, UniProt P01116, G12S).
T2 construct: made in house; host or cells: E. coli BL21 (DE3)
The test is described as follows: HTRF resonance energy transfer assay, K-Ras G12S / SOS1 interaction. Type of test: biochemical. The conditions noted are these: HTRF assay of Example 5; read-out: IC50 against K-Ras G12S. The procedure, abridged: as §1

The target of test [5] is T3, K-Ras G12D (Homo sapiens, UniProt P01116, G12D).
T3 construct: made in house; host or cells: E. coli BL21 (DE3)
T3 sequence (P01116 1-188 isoform P01116-2 G12D): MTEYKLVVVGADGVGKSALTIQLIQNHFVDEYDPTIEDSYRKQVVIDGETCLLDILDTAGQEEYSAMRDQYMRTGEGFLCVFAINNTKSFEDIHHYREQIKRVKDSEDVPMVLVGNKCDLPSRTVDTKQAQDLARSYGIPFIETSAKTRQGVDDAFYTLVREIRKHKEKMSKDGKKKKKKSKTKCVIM
Nature of the test: HTRF resonance energy transfer assay, K-Ras G12D / SOS1 interaction. It counts as biochemical. To be noted: HTRF assay of Example 5; read-out: IC50 against K-Ras G12D. The method in brief:
as §1

In test [6] the test system is A549 cells. Nature of the test: Ras cellular assay, growth of cells with K-Ras G12S mutation (CellTiter-Glo). It counts as cell-based. The conditions noted are these: Homo sapiens, cell growth, Example 9, G12S mutation, read-out: IC50 against A549 cells. The procedure, abridged:
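Growth inhibition IC50 values come from four-parameter fits of CellTiter-Glo luminescence, read about 6 days after compound addition. G12S-mutant A549 cells (e.g. 800/well, RPMI-1640 + 10% heat-inactivated FBS) were plated in tissue-culture-treated or ultra-low-attachment 384-well format. Dosing began the following day with serial dilutions, e.g. 10 points, 3-fold.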

Test [7] addresses T4, K-Ras G12V (Homo sapiens, UniProt P01116, G12V).
T4 construct: made in house; host or cells: E. coli BL21 (DE3)
Nature of the test: HTRF resonance energy transfer assay, K-Ras G12V / SOS1 interaction. Type of test: biochemical. The conditions noted are these: HTRF assay of Example 5; read-out: IC50 against K-Ras G12V. The procedure, abridged: as §1

T4 sequence (P01116 1-188 isoform P01116-2 G12V): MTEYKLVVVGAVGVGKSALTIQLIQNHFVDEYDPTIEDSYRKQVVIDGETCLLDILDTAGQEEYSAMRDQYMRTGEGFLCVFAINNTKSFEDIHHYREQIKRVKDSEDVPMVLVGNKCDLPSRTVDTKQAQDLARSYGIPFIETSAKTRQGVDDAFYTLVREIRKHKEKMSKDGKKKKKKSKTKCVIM
T2 sequence (P01116 1-188 isoform P01116-2 G12S): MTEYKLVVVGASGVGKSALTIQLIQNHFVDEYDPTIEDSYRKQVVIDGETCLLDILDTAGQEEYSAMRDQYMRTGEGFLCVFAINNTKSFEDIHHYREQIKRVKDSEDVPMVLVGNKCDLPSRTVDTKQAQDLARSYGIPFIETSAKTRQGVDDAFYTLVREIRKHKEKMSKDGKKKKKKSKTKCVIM

In general, IC50 refers to the concentration needed to halve the response being measured. Regarding `N#Cc1c(N)sc2c(F)ccc(-c3c(Cl)c4c5c(nc(OC[C@@]67CCCN6C[C@H](F)C7)nc5c3F)N(CC3CC3C#N)[C@@H](C3(O)CC3)CO4)c12` (single isomer, unassigned) [Compound 942], the IC50 in test [1] was less than 500 nM.

`N#Cc1c(N)sc2c(F)ccc(-c3c(Cl)c4c5c(nc(OC[C@@]67CCCN6C[C@H](F)C7)nc5c3F)N(C3CCCCC3O)CCO4)c12` (stereo partly drawn) [Compound 602, 2-amino-4-(8-chloro-10-fluoro-2-(((2R,7aS)-2-fluorotetrahydro-1H-pyrrolizin-7a(5H)-yl)methoxy)-4-(2-hydroxycyclohexyl)-5,6-dihydro-4H-[1,4]oxazepino[5,6,7-de]quinazolin-9-yl)-7-fluorobenzo[b]thiophene-3-carbonitrile]: in test [1], the IC50 was less than 500 nM.

For the molecule `CC1(C)CC(N2CCOc3c(Cl)c(-c4ccc(F)c5sc(N)c(C#N)c45)c(F)c4nc(OC[C@@]56CCCN5C[C@H](F)C6)nc2c34)CO1` (stereo partly drawn) [Compound 1071, 2-amino-4-(8-chloro-4-(5,5-dimethyltetrahydrofuran-3-yl)-10-fluoro-2-(((2R,7aS)-2-fluorotetrahydro-1H-pyrrolizin-7a(5H)-yl)methoxy)-5,6-dihydro-4H-[1,4]oxazepino[5,6,7-de]quinazolin-9-yl)-7-fluorobenzo[b]thiophene-3-carbonitrile], the IC50 in test [2] is less than 5000 nM; in test [3], less than 100 nM; in test [4], less than 100 nM; in test [5] it was less than 100 nM; in test [6] it was less than 5000 nM; in test [7], less than 100 nM.

For `N#Cc1c(N)sc2c(F)ccc(-c3c(Cl)c4c5c(nc(OC[C@@]67CCCN6C[C@H](F)C7)nc5c3F)N(C3CC(NC(=O)[C@@H]5N[C@H]5C5CC5)C3)CCO4)c12` (stereo partly drawn) [Compound 1082, (2R,3S)-N-(3-(9-(2-amino-3-cyano-7-fluorobenzo[b]thiophen-4-yl)-8-chloro-10-fluoro-2-(((2R,7aS)-2-fluorotetrahydro-1H-pyrrolizin-7a(5H)-yl)methoxy)-5,6-dihydro-4H-[1,4]oxazepino[5,6,7-de]quinazolin-4-yl)cyclobutyl)-3-cyclopropylaziridine-2-carboxamide], the IC50 in test [2] was less than 5000 nM; in test [3], less than 100 nM; in test [4], less than 100 nM; in test [5] it was less than 100 nM; in test [6], less than 5000 nM; in test [7], less than 100 nM.

Take `CNC(=O)C1CC(N2CCOc3c(Cl)c(-c4ccc(F)c5sc(N)c(C#N)c45)c(F)c4nc(OC[C@@]56CCCN5C[C@H](F)C6)nc2c34)CCO1` (stereo partly drawn) [Compound 1094, 4-(9-(2-amino-3-cyano-7-fluorobenzo[b]thiophen-4-yl)-8-chloro-10-fluoro-2-(((2R,7aS)-2-fluorotetrahydro-1H-pyrrolizin-7a(5H)-yl)methoxy)-5,6-dihydro-4H-[1,4]oxazepino[5,6,7-de]quinazolin-4-yl)-N-methyltetrahydro-2H-pyran-2-carboxamide]: the IC50 is less than 5000 nM in test [2]; less than 100 nM in test [3]; less than 100 nM in test [4]; less than 100 nM in test [5]; less than 5000 nM in test [6]; less than 100 nM in test [7].

As for `N#Cc1c(N)sc2c(F)ccc(-c3c(Cl)c4c5c(nc(OC[C@@]67CCCN6C[C@H](F)C7)nc5c3F)N(C3CCCCC3)CCO4)c12` [Compound 1116, 2-amino-4-(8-chloro-4-cyclohexyl-10-fluoro-2-(((2R,7aS)-2-fluorotetrahydro-1H-pyrrolizin-7a(5H)-yl)methoxy)-5,6-dihydro-4H-[1,4]oxazepino[5,6,7-de]quinazolin-9-yl)-7-fluorobenzo[b]thiophene-3-carbonitrile], the concentration for half-maximal inhibition (IC50) in test [2] is less than 5000 nM; in test [3], less than 100 nM; in test [4], less than 100 nM; in test [5] it was less than 100 nM; in test [6], less than 5000 nM; in test [7] it was less than 100 nM.

On to `CNC(=O)C1CCC(N2CCOc3c(Cl)c(-c4ccc(F)c5sc(N)c(C#N)c45)c(F)c4nc(OC[C@@]56CCCN5C[C@H](F)C6)nc2c34)CC1` (stereo partly drawn) [Compound 1120, 4-(9-(2-amino-3-cyano-7-fluorobenzo[b]thiophen-4-yl)-8-chloro-10-fluoro-2-(((2R,7aS)-2-fluorotetrahydro-1H-pyrrolizin-7a(5H)-yl)methoxy)-5,6-dihydro-4H-[1,4]oxazepino[5,6,7-de]quinazolin-4-yl)-N-methylcyclohexane-1-carboxamide], for which the IC50 in test [2] was less than 5000 nM; in test [3] it was less than 100 nM; in test [4], less than 100 nM; in test [5], less than 100 nM; in test [6], less than 5000 nM; in test [7] it was less than 100 nM.

As for `N#Cc1c(N)sc2c(F)ccc(-c3c(Cl)c4c5c(nc(OC[C@@]67CCCN6C[C@H](F)C7)nc5c3F)N(CC(F)F)CC(C3CC3)O4)c12` (stereo partly drawn) [Compound 1128, 2-amino-4-(8-chloro-6-cyclopropyl-4-(2,2-difluoroethyl)-10-fluoro-2-(((2R,7aS)-2-fluorotetrahydro-1H-pyrrolizin-7a(5H)-yl)methoxy)-5,6-dihydro-4H-[1,4]oxazepino[5,6,7-de]quinazolin-9-yl)-7-fluorobenzo[b]thiophene-3-carbonitrile], the IC50 in test [2] is less than 5000 nM; in test [3], less than 100 nM; in test [4], less than 100 nM; in test [5], less than 100 nM; in test [6] it was less than 5000 nM; in test [7], less than 100 nM.

Take `COCCN1CCCOc2c(Cl)c(-c3ccc(F)c4sc(N)c(C#N)c34)c(F)c3nc(OC[C@@]45CCCN4C[C@H](F)C5)nc1c23` [Compound 1201, 2-amino-4-(9-chloro-11-fluoro-2-(((2R,7aS)-2-fluorotetrahydro-1H-pyrrolizin-7a(5H)-yl)methoxy)-4-(2-methoxyethyl)-4,5,6,7-tetrahydro-[1,5]oxazocino[4,3,2-de]quinazolin-10-yl)-7-fluorobenzo[b]thiophene-3-carbonitrile]: the concentration for half-maximal inhibition (IC50) in test [2] is less than 5000 nM; in test [3], less than 100 nM; in test [4] it was less than 100 nM; in test [5], less than 100 nM; in test [6], less than 5000 nM; in test [7] it was less than 100 nM.

Turning to `N#Cc1c(N)sc2c(F)ccc(-c3c(Cl)c4c5c(nc(OC[C@@]67CCCN6C[C@H](F)C7)nc5c3F)N(C3CCOC3)CCCO4)c12` (stereo partly drawn) [Compound 1205, 2-amino-4-(9-chloro-11-fluoro-2-(((2R,7aS)-2-fluorotetrahydro-1H-pyrrolizin-7a(5H)-yl)methoxy)-4-(tetrahydrofuran-3-yl)-4,5,6,7-tetrahydro-[1,5]oxazocino[4,3,2-de]quinazolin-10-yl)-7-fluorobenzo[b]thiophene-3-carbonitrile], the IC50 in test [2] is less than 5000 nM; in test [3] it was less than 100 nM; in test [4], less than 100 nM; in test [5], less than 100 nM; in test [6] it was less than 5000 nM; in test [7] it was less than 100 nM.

In the case of `CC1COc2c(Cl)c(-c3ccc(F)c4sc(N)c(C#N)c34)c(F)c3nc(OC[C@@]45CCCN4C[C@H](F)C5)nc(c23)N(C)[C@@H]1C` (stereo partly drawn) [Compound 1206, 2-amino-4-((5R)-9-chloro-11-fluoro-2-(((2R,7aS)-2-fluorotetrahydro-1H-pyrrolizin-7a(5H)-yl)methoxy)-4,5,6-trimethyl-4,5,6,7-tetrahydro-[1,5]oxazocino[4,3,2-de]quinazolin-10-yl)-7-fluorobenzo[b]thiophene-3-carbonitrile], the IC50 was less than 5000 nM in test [2]; less than 100 nM in test [3]; less than 100 nM in test [4]; less than 100 nM in test [5]; less than 5000 nM in test [6]; less than 100 nM in test [7].

In the case of `CC1CCOc2c(Cl)c(-c3ccc(F)c4sc(N)c(C#N)c34)c(F)c3nc(OC[C@@]45CCCN4C[C@H](F)C5)nc(c23)N1C1CC1` (stereo partly drawn) [Compound 1215, 2-amino-4-(9-chloro-4-cyclopropyl-11-fluoro-2-(((2R,7aS)-2-fluorotetrahydro-1H-pyrrolizin-7a(5H)-yl)methoxy)-5-methyl-4,5,6,7-tetrahydro-[1,5]oxazocino[4,3,2-de]quinazolin-10-yl)-7-fluorobenzo[b]thiophene-3-carbonitrile], the IC50 in test [2] was less than 5000 nM; in test [3] it was less than 100 nM; in test [4] it was less than 100 nM; in test [5], less than 100 nM; in test [6] it was less than 5000 nM; in test [7], less than 100 nM.
